Data on two compounds can be found in US20220220106A1, “QUINOLINE COMPOUNDS AND PHARMACEUTICAL COMPOSITIONS AND USES THEREOF” (Academy of Military Medical Sciences, priority 2019, published 2022).

Series [1] in a line: Water solubility in saturated aqueous solution (HPLC, one-point method). It counts as physicochemical. The note with it: for Water solubility: deionized water, 25° C. On the procedure: By measuring the solubility of compound in a saturated aqueous solution, the water solubility of the compound was further investigated.
Preparation of Supersaturated Solution:
(1) About 1 mg of the compound to be tested was weighed and added to a 25 mL tube;
(2) 5 mL of deionized water was added, shaken well, placed in a vortex shaker and mixed for 30 seconds, then treated ultrasonically for 30 seconds;
(3) The tube was placed in a constant temperature water bath, and allowed to stand in a constant temperature water bath at 25° C. for 1 hour;
(4) The operation of (2) was repeated, and the standing at constant temperature of 25° C. was continued for 1 hour;
(5) The prepared supersaturated solution supernatant was taken out and placed in a centrifuge tube, centrifuged at 15000 rpm for 5 minutes, and the upper centrifugate was taken out for later use.
Liquid Chromatography Method:
(1) Chromatographic column: Agilent XDB Eclipse C18, 25 cm×4.6 mm×5 μm liquid chromatography column.
(2) Mobile phase: Phase A: water (0.1% trifluoroacetic acid); Phase B: acetonitrile.
(3) Flow rate: 1.0 mL/min.
(4) Sampling volume: 10 μl.
Preparation of standard solution: 1.0 mg of the sample to be tested was accurately weighed, added to a 10 mL volumetric flask, dissolved in methanol as solvent, metered to a constant volume of 10 mL, the concentration of solution was calculated, and it was used as a standard solution for later use.
By using the one-point method, the chromatographic peak area of the standard solution of the sample to be tested was determined, and then the peak area of the supersaturated compound was determined, and the solubility of the compound to be tested in water was calculated accordingly.

In series [2] the test system is Enterovirus 71 (EV71) H strain. Nature of the series: In vitro anti-EV71 activity (antiviral activity in RD cells, CellTiter-Glo). It counts as cell-based. The note with it: Enterovirus A, 96 h; EV71 H strain, RD cells, 4 days, CellTiter-Glo; read-out: IC50. In short, it runs like this:
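RD cells infected with 100TCID50 EV71 in DMEM+2% FBS, with compound in 10-point three-fold dilutions, cultured 4 days at 37° C. Cell viability by CellTiter-Glo luminescence; inhibition rate relative to cell control fitted to S-curve for IC50. TD50 derived likewise; SI=TD50/IC50.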

Broadly, the IC50 is the midpoint of a concentration-inhibition curve. In the case of `COc1ccc(-c2ccc3ncc4ccc(=O)n(-c5cccc(C(F)(F)F)c5)c4c3c2)cn1` [HTL-7-03, 9-[3-(6-methoxy)pyridyl]-2-oxo-1-[3-(trifluoromethyl)phenyl]-1,2-dihydrobenzo[h][1,6]naphthyridine], in series [1], the Water solubility came out at 0.61 µg/mL. The IC50 in series [2] was found to be 40 ± 10 nM.
Regarding `CN1CCN(c2ccc(-c3ccc4ncc5ccc(=O)n(-c6cccc(C(F)(F)F)c6)c5c4c3)cn2)CC1` [HTL-7-17, 9-{3-[6-(4-methylpiperazin-1-yl)pyridyl]}-2-oxo-1-[3-(trifluoromethyl)phenyl]-1,2-dihydrobenzo[h][1,6]naphthyridine], in series [1], the “water solubility, in words” value is given as “relatively high water solubility” and the Water solubility was 18.64 µg/mL. Moreover, the IC50 in series [2] turned out to be 100 ± 30 nM.
